Article PMC5618429, “Kempopeptin C, a Novel Marine-Derived Serine Protease Inhibitor Targeting Invasive Breast Cancer” (Marine Drugs, 2017)

Target: T1, recombinant human matriptase (Homo sapiens, UniProt Q9Y5Y6)
T1 construct: purchased R&D Systems 3946-SE-010
T1 sequence (Q9Y5Y6 615-855 limits assumed): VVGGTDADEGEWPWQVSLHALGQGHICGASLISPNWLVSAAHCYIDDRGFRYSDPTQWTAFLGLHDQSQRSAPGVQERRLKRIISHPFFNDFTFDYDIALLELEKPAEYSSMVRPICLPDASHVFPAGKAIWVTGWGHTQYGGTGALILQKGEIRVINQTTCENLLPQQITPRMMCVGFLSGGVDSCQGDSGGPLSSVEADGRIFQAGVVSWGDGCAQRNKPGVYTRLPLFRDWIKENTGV
Experiment: In vitro cleavage of desmoglein-2 by matriptase (SDS-PAGE, silver stain, densitometry)
Assay type: biochemical
Details: 3 h; for Inhibition of in vitro cleavage of Dsg-2 by matriptase: enzyme to substrate ratio 1:5, pH 9.0, 37 °C, 10‒0.01 µM inhibitor, qualitative
Method: Figure 4 The effect of kempopeptin C (3) on the in vitro cleavage of CDCP1 and desmoglein-2 (Dsg-2) by matriptase. (A,B) Incubation of recombinant human CDCP1 with recombinant human matriptase (enzyme to substrate ratio 1:5) in 50 mM Tris, 50 mM NaCl, 0.01% Tween 20 (pH 9.0) at 37 °C for 30 min and 2 h in the presence and absence of different concentrations (10‒0.01 µM) of kempopeptin C (3). (C) Incubation of recombinant human Dsg-2 with recombinant human matriptase (enzyme to substrate ratio 1:5) in 50 mM Tris, 50 mM NaCl, 0.01% tween 20 (pH 9.0) at 37 °C for 3 h in the presence and absence of different concentrations (10‒0.01 µM) of kempopeptin C (3). Fragments were separated on SDS-PAGE under reducing conditions and silver stained. (D) Densitometric analysis of Dsg-2 bands in the SDS-PAGE in […].
Among the earliest events in cancer metastasis is the loss of intracellular adhesion. Desmosomes are adhesive molecules localized at the cell membrane acting as an anchor for intermediate filaments in addition to being adhesive intracellular junctions. Desmogleins (Dsg 1‒4) and desmocollins (Dsc 1‒3), comprising the core of the desmosomal adhesive complex, are glycoproteins and members of the cadherin superfamily of proteins. Desmogleins have been reported to be aberrantly expressed in several cancers and substrates of several proteases. Dsg-2 is known to be a substrate of kallikrein 7 (KLK7) and harbors a cleavage site for matriptase. We therefore investigated the cleavage of Dsg-2 by matriptase in vitro and the ability of kempopeptin C (3) to inhibit or reduce this cleavage. Matriptase and Dsg-2 were incubated for 3 h at 37 °C in assay buffer (final molar ratio 1:5) in the presence of different concentrations of kempopeptin C (3) or solvent control (Figure 4C). The resulting protein fragments were separated by SDS-PAGE and subjected to silver staining. […] The incomplete cleavage of Dsg-2 by matriptase might be due to the relative affinity of kempopeptin C (3) to matriptase, such that it can block the cleavage of some low affinity bands, but have no effects on others. […]

CCCC(=O)NC(C(=O)NC1C(=O)NC(CCCCN)C(=O)NC2CCC(O)N(C2=O)C(C(C)CC)C(=O)N(C)C(Cc2ccc(OC)c(Cl)c2)C(=O)NC(C(C)C)C(=O)OC1C)C(C)C (stereo not drawn) [Kempopeptin C, kempopeptin C]
Densitometry of full-length Dsg-2 (Band 1) (37 °C, compared to lower concentrations of the inhibitor): higher intensity of the full-length Dsg-2 (Band 1) in the presence of 10, 1 and 0.1 µM | Inhibition of in vitro cleavage of Dsg-2 by matriptase: inhibit the cleavage | Inhibition of in vitro cleavage of Dsg-2 by matriptase (listed as Kempopeptin C (3)): slight dose-dependent reduction in the cleavage of Dsg-2
